{"source": "patent US20040197315A1", "about": "“Dopaminergic cell lines stably expressing A53T alpha-synuclein and methods of using same” (priority 2002, published 2004)", "key": {"proteasome": {"molecular_target": "T1, proteasome (Rattus norvegicus, UniProt P28075)", "T1 construct": "endogenous in cells; host or cells: rat PC12 clonal lines (empty vector, or stably expressing human wild-type or A53T alpha-synuclein)", "T1 sequence (P28075 60-263)": "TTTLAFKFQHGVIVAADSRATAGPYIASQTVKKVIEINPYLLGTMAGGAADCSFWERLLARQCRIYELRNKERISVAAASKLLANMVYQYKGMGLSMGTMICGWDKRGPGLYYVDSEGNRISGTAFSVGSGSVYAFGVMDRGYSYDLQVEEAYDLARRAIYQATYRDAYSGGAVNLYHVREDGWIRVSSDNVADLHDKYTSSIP", "assay": "Assay for chymotrypsin-like activity of the proteasome in PC12 cell lysates (LLVY-AFC substrate)", "format": "cell-based", "conditions": "cells treated overnight with 0.5 μM inhibitor; lysate assayed with 100 μM LLVY-AFC, 37° C., 10 min", "protocol": "Cells from the different lines were triturated off the dish, centrifuged, and washed in PBS. The resulting pellets were resuspended in 200-500 μl of lysis buffer (10 mM Tris-HCl, pH 7.8, with 1 mM ATP, and 10% glycerol) (Figueiredo-Pereira et al., A new inhibitor of the chymotrypsin-like activity of the multicatalytic proteinase complex (20S proteasome) induces accumulation of ubiquitin-protein conjugates in a neuronal cell. J. Neurochem., 63:1578-1581, 1994). The cells were left for 20 min on ice and then lysed with 30 strokes of a Dounce homogenizer. The lysates were then centrifuged at 10,000×g for 10 min. Fifty micrograms of protein of the resulting supernatants was included in an assay buffer of 100 mM Tris-HCl, pH 8.0, 2 mM CaCl2, 1 mM ATP, and a 100 μM concentration of the fluorogenic substrate LLVY-7-amino-4-trifluoromethyl coumarin (AFC) (Enzyme Systems Products, Livermore, Calif.) in a total final volume of 1 ml. The assay was performed at 37° C. for 10 min (Figueiredo-Pereira et al., 1994, supra). The activity was then measured in a SLM 8000 fluorometer, with assay buffer without lysate as blank. The activity was linear with respect to the amount of protein (in the range of 25-200 μg of protein)."}, "[1]": {"tested_on": "PC12 cell lines expressing A53T mutant α-synuclein", "assay": "Trypan blue assay of cell death in mutant A53T α-synuclein PC12 lines", "format": "cell-based, rat", "conditions": "50 μM, data not shown", "protocol": "The day before the trypan blue assay, subconfluent cultures were rinsed twice with complete medium to remove cells at late stages of degeneration. The following day the cells were triturated off the dish and five drops of the cellular suspension were added in a tube together with five drops of Trypan blue solution (0.4%; Sigma-Aldrich, St. Louis, Mo.). After light mixing, the cells were placed on a glass slide, coverslipped, and visualized under 20× magnification. For each line, three fields of 100 cells each were assessed for the percentage of Trypan blue-positive cells. The results reported are the mean±SEM (n=3).\nTo test for potential involvement of caspases in cellular degeneration associated with expression of A53T α-synuclein, control, wild-type, and mutant lines were examined for basal caspase-3-like activity, as measured by cleavage of the fluorogenic substrate DEVD-AFC (15 μM; Enzyme Systems Products, Livermore, Calif.). No difference was found in basal activity among cell lines (data not shown). […] It can be concluded that PC12 cell lines expressing A53T mutant α-synuclein display enhanced cellular degeneration that appears nonapoptotic by morphological and biochemical criteria."}}, "note": "Where a SMILES comes first, the peptide text is derived from it. The star is where a group is joined. Cbz = O=C(OCc1ccccc1)*", "data": [{"compound": "CC(C)C[C@@H](C=O)NC(=O)[C@H](CC(C)C)NC(=O)[C@H](CC(C)C)NC(=O)OCc1ccccc1", "note": "[MG132] (Cbz-Leu-Leu-Leu-aldehyde)", "values": [{"measurement": "chymotrypsin-like proteasomal activity remaining in lysates of treated cells", "setting": "proteasome", "result": "< 5", "unit": "%"}]}, {"compound": "Boc-aspartate-fluoromethyl ketone", "values": [{"measurement": "effect on percentage of Trypan blue-positive cells", "setting": "[1]", "result": "did not affect"}]}]}
